Measurements reported in patent US20220323427A1, “SOMATOSTATIN RECEPTOR TYPE 5 AGONIST FOR THE TREATMENT OF HYPERINSULINISM” (Crinetics Pharmaceuticals, Inc., priority 2021, published 2022).

Target: T1, human somatostatin receptor subtype 2 (Homo sapiens, UniProt P30874)
T1 construct: expressed in transfected cells
Experiment: cAMP assay for SST2R
Format: cell-based
Conditions: inhibition of cAMP, CHO-K1 cells expressing human SST2; read-out: SST2 potency (EC50; nM)
Text: General overview: All five SSTR subtypes are Gi coupled G-protein coupled receptors (GPCRs) that lead to decreases in intracellular cyclic AMP (cAMP) when activated by an agonist. Therefore, measurement of intracellular cAMP levels can be used to assess whether compounds of the invention are agonists of SSTR subtypes (John Kelly, Troy Stevens, W. Joseph Thompson, and Roland Seifert, Current Protocols in Pharmacology, 2005, 2.2.1-2.2). One example of an intracellular cAMP assay is described below.
Four days prior to the assay, 5,000 Chinese hamster ovary cells (CHO-K1, ATCC #CCL-61) stably expressing the human somatostatin receptor subtype 2 are plated in each well of a 96-well tissue culture-treated plate in Ham's F12 growth media (ThermoFisher #10-080-CM) supplemented with 10% donor bovine serum (Gemini Bio-Products #100-506), 100 U/mL penicillin; 100 ug/mL streptomycin; 2 mM L-glutamine (Gemini Bio-Products #400-110) and 0.2 mg/mL hygromycin B (GoldBio #31282-04-9). The cells are cultured at 37° C., 5% CO2 and 95% humidity. […] The time-resolved fluorescent signal is read with a Tecan M1000Pro multiplate reader. The intracellular cAMP concentrations are calculated by regression to a standard curve and are plotted vs. the concentration of the compounds of the invention and the EC50 of the compounds are calculated using standard methods. […]

T1 sequence (P30874 whole entry): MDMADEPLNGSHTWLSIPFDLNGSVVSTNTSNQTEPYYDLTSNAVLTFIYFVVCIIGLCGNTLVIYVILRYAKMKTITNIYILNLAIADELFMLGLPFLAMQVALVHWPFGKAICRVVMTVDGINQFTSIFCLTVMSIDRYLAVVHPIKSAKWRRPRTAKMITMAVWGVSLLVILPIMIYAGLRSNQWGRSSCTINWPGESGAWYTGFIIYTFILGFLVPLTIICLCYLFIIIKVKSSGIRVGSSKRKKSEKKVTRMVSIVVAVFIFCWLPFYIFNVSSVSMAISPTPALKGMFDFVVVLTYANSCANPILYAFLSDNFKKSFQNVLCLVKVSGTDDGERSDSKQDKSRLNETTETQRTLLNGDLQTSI

EC50: > 100 nM
Compound: C[C@H](NC(=O)c1cnc(C#N)c(-c2cc(F)cc(F)c2)c1N1CC[C@H](N)C1)C(F)(F)F [Compound 1, 4-[(3S)-3-aminopyrrolidin-1-yl]-6-cyano-5-(3,5-difluorophenyl)-N-[(2S)-1,1,1-trifluoropropan-2-yl]pyridine-3-carboxamide]
